According to patent US20070059785A1, “Biomarkers in cancer” (SMITHKLINE BEECHAM CORPORATION, priority 2003, published 2007):

Assays:
erbB2 [1] = molecular target: T1, erbB2 (Homo sapiens, UniProt P04626); assay: Clinical tumor biopsies, total erbB2 by IHC
Description: All subjects provided written informed consent.
“erbB2” refers to total erbB2 as measured by immunohistochemistry and reported in OD;

p-Erk1/2 = assay: Clinical tumor biopsies, p-ERK index by quantitative IHC; settings: patient 364, head and neck cancer, 1600 mg/day, Day 21
Description: DAB (Dako) was used as the chromogen.
To quantify changes in Erk1/2 activation state, a p-Erk index was established for each biopsy. The p-Erk index was the product of the percentage of cells staining positive for p-Erk1/2 in the tissue section and the OD value for p-Erk1/2 immunoreactivity. Investigators preparing and analyzing tissue sections were blinded to both patient tumor type and response to therapy.
“pERK index” is calculated by multiplying the percentage of cells staining positive for p-Erk and the optical density (OD) score, ×100;

solid tumors = assay: Open-label clinical study, clinical response (RECIST); type: in vivo, human
Erk1/2 [2] = assay: Western blot of activated Erk1/2 (p-Erk1/2) in S1 cells; type: cell-based, human; settings: 72 h
Text: Proteins were transferred to Immobilon-P or nitrocellulose membranes.
ErbB2 overexpression is associated with the activation of downstream pathways involved in the propagation of proliferative signals such as Erk1/2 MAP kinases (Janes et al., Oncogene, 9:3601(1994)). […].

p-ERK = assay: Antibody staining of p-ERK localization in MCF7/erbB2 cells; type: cell-based, human; settings: 10 uM, results not shown
AKT [3] = settings: S1 cells; not reversed by EGF; data of PCT/US03/12739; cited from earlier work
Heregulin = assay: Clinical tumor biopsies, heregulin by IHC; settings: patient 425, inflammatory breast cancer, 1200 mg/d ditosylate salt, day 21 (day 0: 5)
Description: Erk1/2 (1:1200), erbB3 (1:10), heregulin (1:25), and TGFα (1:20) were also immunostained using the BenchMark™ with I-VIEW detection chemistry.
“Heregulin”, a ligand that stimulates erbB3 (HER3) and HER4, was measured by immunohistochemistry and reported in OD.

erbB2 [4] = molecular target: T1, erbB2; assay: Clinical tumor biopsies, erbB2 p-tyr by IHC; settings: patient 361, 1200 mg/day, Day 21, data not shown
[5] = Plasma concentration in patients; type: in vivo, human; settings: oral once a day
Erk1/2 [6] = assay: Clinical tumor biopsies, localization of total Erk1/2 by IHC; type: in vivo, human; settings: patient 361, Day 21; baseline exclusively intra-nuclear; data not shown
Text: Upon activation, p-Erk1/2 relocates to the nucleus where it regulates transcription of a variety of genes involved in tumor growth, adhesion, and angiogenesis.

HN5 cells = assay: Apoptosis and growth of HN5 cells; type: cell-based, human; settings: data not shown
pAKT = assay: Confocal microscopy of AU-565 cells exposed to epigen; type: cell-based, human; settings: epigen and GW572016, confocal microscopy, results not shown
Text: In response to NDF (Neu Differentiating Factor or Heregulin), these cells divide and multiply. AU565 cells were stained with antibodies to show total ERK, or stained with antibodies to show phosphorylated ERK (p-Erk).

Hb4a cells = assay: Hb4a cell growth, viable cell count by trypan blue exclusion; type: cell-based; settings: Homo sapiens, 72 h, serum-free, three independent experiments, read-out: inhibition of cell growth compared with vehicle treated controls
Description: Exponentially growing Hb4a cells were cultured in 35 mm petri dishes with serum-free medium containing 1.5% BSA. […] Viable cells were counted after 72 h using trypan blue exclusion.

AKT [7] = assay: HN5 tumor xenograft, p-AKT and total AKT by Western blot; type: in vivo, CD-1 nude mice
Description: (§1) Total Erk1/2, total AKT, activated Erk1/2 (p-Erk1/2), and activated AKT (p-AKT) were assessed by Western blot loading equal amounts of protein from tumor biopsies.
HN5 cells were grown in DMEM supplemented with 10% fetal bovine serum, sodium pyruvate and L-glutamine at 37° C. in a 95/5% air/CO2 atmosphere. […] Cells (2×10^6/mouse) in 0.2 ml were injected into the right flank of CD-1 nude mice. Female CD-1 nude mice were acquired from Charles River Laboratories. Mice were maintained in filter-topped cages in an aseptic environment with laminar flow filtered ventilation. […] Tumors were biopsied pre-treatment and 4 hours after the last dose. All animal surgery was conducted under aseptic conditions. For the initial biopsy, mice were anesthetized with isofluorane inhalation. The skin over the tumor was disinfected with iodine. A small hemostat was used to tease away the skin from the tumor, and scissors were used to make a 1 cm incision over the tumor. A scalpel and forceps were used to remove approximately 100 mg of tumor. The tumor was then frozen in liquid nitrogen. Wound clips were used to close the incision. The anesthetized mice were kept warm until they recovered mobility, usually less than 1-2 minutes. For the terminal biopsy, mice were euthanized with CO2 inhalation, and the remainder of the tumor excised. HN5 tumors were placed on dry ice in vials containing cold isopentane, and stored at −80 C prior to study. BT474 tumor samples were fixed for 2-3 hours in phosphatase inhibitor consisting of sodium fluoride and sodium pervanadate in 10% neutral buffered formalin. Following fixative treatment, BT474 samples were washed in water and stored in 70% ethanol prior to study. Cell extracts were prepared by homogenization in RIPA buffer at 4° C.
as §1

S1 cells = assay: Cell cycle analysis (propidium iodide, flow cytometry), apoptosis of S1 cells; settings: 5 μM, 72 h
Description: The percentage of cells in G1, S phase, and G2/M are indicated. The sub-G1 peak represents the apoptotic fraction.
Cells were harvested and fixed with 70% ethanol in PBS. Cell pellets were then resuspended in 0.5 ml PBS containing propidium iodide (50 μg/ml) and DNase-free RNase (100 μg/ml). Cell cycle analysis was performed using a BD Flow Cytometer (Becton Dickinson, San Jose, Calif., USA).
After 72 h, cell cycle analysis was performed using propidium iodide staining and flow cytometry as described in Materials and methods.

[8] = patients with >70% decrease in pERK index

T1 sequence (P04626 23-1255): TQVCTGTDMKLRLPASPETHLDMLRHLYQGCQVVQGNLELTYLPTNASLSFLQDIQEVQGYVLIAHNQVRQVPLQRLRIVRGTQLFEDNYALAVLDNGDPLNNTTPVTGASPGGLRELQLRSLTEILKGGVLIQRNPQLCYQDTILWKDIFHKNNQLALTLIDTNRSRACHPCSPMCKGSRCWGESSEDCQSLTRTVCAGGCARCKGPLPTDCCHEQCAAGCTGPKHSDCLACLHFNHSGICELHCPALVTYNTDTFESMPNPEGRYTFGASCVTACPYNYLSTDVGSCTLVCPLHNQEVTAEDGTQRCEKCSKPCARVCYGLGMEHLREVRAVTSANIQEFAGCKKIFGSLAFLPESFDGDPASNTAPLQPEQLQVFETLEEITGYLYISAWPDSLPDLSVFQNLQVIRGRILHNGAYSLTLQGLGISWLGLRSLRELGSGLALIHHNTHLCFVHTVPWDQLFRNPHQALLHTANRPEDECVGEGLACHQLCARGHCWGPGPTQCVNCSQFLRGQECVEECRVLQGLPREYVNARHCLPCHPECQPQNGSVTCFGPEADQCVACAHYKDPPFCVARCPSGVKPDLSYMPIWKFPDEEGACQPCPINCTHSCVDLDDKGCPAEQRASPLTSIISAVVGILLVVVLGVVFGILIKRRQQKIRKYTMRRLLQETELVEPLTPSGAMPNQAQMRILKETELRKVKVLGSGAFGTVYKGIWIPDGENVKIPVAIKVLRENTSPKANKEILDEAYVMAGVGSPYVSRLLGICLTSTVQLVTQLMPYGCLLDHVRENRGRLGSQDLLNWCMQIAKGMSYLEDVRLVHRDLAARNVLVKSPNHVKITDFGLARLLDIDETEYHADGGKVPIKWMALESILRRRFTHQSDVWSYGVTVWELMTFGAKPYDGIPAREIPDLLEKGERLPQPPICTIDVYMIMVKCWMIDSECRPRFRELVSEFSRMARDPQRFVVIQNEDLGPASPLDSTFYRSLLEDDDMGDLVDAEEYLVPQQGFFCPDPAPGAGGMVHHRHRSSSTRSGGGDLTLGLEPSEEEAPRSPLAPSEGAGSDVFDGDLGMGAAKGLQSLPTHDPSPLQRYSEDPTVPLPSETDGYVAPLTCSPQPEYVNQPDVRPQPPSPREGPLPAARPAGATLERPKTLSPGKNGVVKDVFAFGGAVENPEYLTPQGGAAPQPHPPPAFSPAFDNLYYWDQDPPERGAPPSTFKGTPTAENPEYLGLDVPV

CS(=O)(=O)CCNCc1ccc(-c2ccc3ncnc(Nc4ccc(OCc5cccc(F)c5)c(Cl)c4)c3c2)o1 [GW572016, N-{3-Chloro-4-[(3-fluorobenzyl)oxy]phenyl}-6-[5-({[2-(methylsulfonyl)ethyl]amino}methyl)-2-furyl]-4-quinazolinamine]
total erbB2 protein (erbB2 [1]; patient 361, 1200 mg/day): no effect | ErbB2 (erbB2 [1]; patient 425, inflammatory breast cancer, 1200 mg/d ditosylate salt, day 21 (day 0: 62)): 68 OD | decrease in p-Erk1/2 (p-Erk1/2): > 90% | metastatic subcutaneous nodules (solid tumors; patient 361, metastatic breast cancer, 1200 mg/day, Day 21): almost all of their metastatic subcutaneous nodules had completely regressed | metastatic lymph node that was sequentially biopsied (solid tumors; patient 364, 1600 mg/day, Day 21): reduced in size | sensitivity of the patient's tumor to treatment (solid tumors; patient 425, inflammatory breast cancer, 1200 mg once per day): very sensitive | Partial Response at eight weeks (solid tumors; [8]): Partial Response: 2/5 | Progression at eight weeks (solid tumors; [8]): one and Progression: 1/5 | Stable Disease at eight weeks (solid tumors; [8]): Stable Disease: 2/5 | Partial Response at eight weeks (solid tumors; patients with no decrease or increase in pERK index): Partial Response: 0/3 | total steady state Erk protein (Erk1/2 [2]; 0.5-5 μM): remained unchanged | inhibition at 0.5 µM (Erk1/2 [2]; Homo sapiens, 500 nM, vs vehicle, read-out: inhibition of activated, phosphorylated Erk1/2 (p-Erk)): > 50% | inhibition at 2.5 µM (Erk1/2 [2]; Homo sapiens, 2.5 μM, vs vehicle, read-out: inhibition of activated, phosphorylated Erk1/2 (p-Erk)): > 50% | inhibition at 5 µM (Erk1/2 [2]; Homo sapiens, 5 μM, vs vehicle, read-out: inhibition of activated, phosphorylated Erk1/2 (p-Erk)): 100% | intensity of staining for p-ERK in the nucleus vs control cells (p-ERK): less | baseline phosphorylation of AKT (AKT [3]): inhibits | Heregulin (Heregulin): 8 OD | erbB2 p-tyr (erbB2 [4]): had not decreased | time by which steady state plasma concentrations were achieved [5]: ≤ 21 days | localization of total Erk1/2 staining (Erk1/2 [6]): almost entirely cytoplasmic | apoptosis (HN5 cells): significant apoptosis was not seen | cell growth (HN5 cells): growth arrest | p-erk in the nuclei vs cells treated with epigen alone (pAKT): comparatively less | inhibition at 2.5 µM (Hb4a cells): 50% | effect on p-AKT (AKT [7]; 10 mg/kg, data not shown): little effect | p-AKT in tumors (AKT [7]; 30 mg/kg/dose): inhibited | total steady state AKT protein levels (AKT [7]; 30 mg/kg/dose): without affecting | increase in percentage of apoptotic cells vs vehicle (S1 cells): 23 fold | percentage of cells in S phase and G2/M (S1 cells): concomitant reduction | percentage of apoptotic cells (sub-G1 peak) (S1 cells; vehicle control 2%): 46%
